According to patent publication US20230322846A9, “NEUROACTIVE STEROIDS AND THEIR METHODS OF USE” (SAGE THERAPEUTICS, INC., priority 2018, published 2023):
pEC50, pIC50: −log10 of the molar value.

Key:
[1] = target: [35S]-TBPS binding, rat brain cortical membranes; assay: Steroid inhibition of [35S]-TBPS binding; details: 3 nM [35S]-TBPS, in the presence of 5 mM GABA
In short: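 Rat cortical P2 membranes incubated 90 min at room temperature with 3 nM [35S]-TBPS, […] and test compound (0.5% DMSO final) in NaCl/Na–K phosphate pH 7.4; nonspecific binding with […]. Filter-bound radioactivity counted; IC50 and Imax from nonlinear fits, mean ± SEM.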

[2] = target: human GABAA receptors composed of the α1β2γ2 subunits (Homo sapiens (Human), UniProt P14867+P18507+P47870); assay: α1β2γ2 SyncroPatch automated patch clamp assay; assay type: cell-based; details: for pEC50: HEK cells, potentiation of submaximal GABA current, clamped at −120 mV; for α1β2γ2 EMAX: peak current after GABA+compound divided by peak current after GABA alone
Procedure: (§1) The SyncroPatch 384PE (Nanion, Germany) automated patch clamp platform was used to obtain recordings from human embryonic kidney cells stably expressing human GABAA receptors composed of the α1β2γ2 and α4β3δ subunits. Cells were bathed in an extracellular solution containing: 140 mM NaCl, 4 mM KCl, 2 mM CaCl2), 1 mM MgCl2, 10 mM HEPES, 5 mM glucose and 0.1% DMSO. Solution was maintained at pH 7.4 with NaOH and 300 mOsm/L. Chips with multi-hole (4×) medium resistance (2-3M) are used for the recombinant cell line experiments. Once harvested, cells are stored in extracellular solution set to 10° C. in the cell hotel with a minimum shaking speed of 200 rpm before addition to the chip at the beginning of each experiment. Whole cell patch clamp recordings were made using an intracellular solution containing: 90 mM KCl, 50 mM KF, 1.5 mM MgCl2, 11.1 mM EGTA and 10 mM HEPES, 2 mM NaATP, maintained at pH 7.2 with KOH. Currents are leak corrected (using P/2 leak correction protocol) and sampled at 5 kHz. Cells were clamped at −120 mV. After establishing a stable baseline, a submaximal concentration of GABA (3-5 μM for cells expressing α1β2γ2 and 10 μM for cells expressing […]) was applied at a rate of 10 μl/second, immediately followed by application of GABA+compound (10 μl/second) at a single concentration of compound per cell. Compounds were tested at six concentrations (0.029, 0.12, 0.47, 1.88, 7.5, and 30 μM) in n=8-12 cells per concentration. Compound effect was determined by dividing peak current amplitude after GABA+compound by peak current amplitude after GABA alone. EC50 and Emax values were determined from average values for each concentration.

[3] = target: human GABAA receptors composed of the α4β3δ subunits (Homo sapiens (Human), UniProt O14764+P28472+P48169); assay: α4β3δ SyncroPatch automated patch clamp assay; assay type: cell-based; details: for pEC50: HEK cells, potentiation of submaximal GABA current, clamped at −120 mV; for α4β3δ EMAX: peak current after GABA+compound divided by peak current after GABA alone
Procedure: as §1

human GABAA receptors composed of the α4β3δ subunits, sequence (P48169 36-554 limits assumed): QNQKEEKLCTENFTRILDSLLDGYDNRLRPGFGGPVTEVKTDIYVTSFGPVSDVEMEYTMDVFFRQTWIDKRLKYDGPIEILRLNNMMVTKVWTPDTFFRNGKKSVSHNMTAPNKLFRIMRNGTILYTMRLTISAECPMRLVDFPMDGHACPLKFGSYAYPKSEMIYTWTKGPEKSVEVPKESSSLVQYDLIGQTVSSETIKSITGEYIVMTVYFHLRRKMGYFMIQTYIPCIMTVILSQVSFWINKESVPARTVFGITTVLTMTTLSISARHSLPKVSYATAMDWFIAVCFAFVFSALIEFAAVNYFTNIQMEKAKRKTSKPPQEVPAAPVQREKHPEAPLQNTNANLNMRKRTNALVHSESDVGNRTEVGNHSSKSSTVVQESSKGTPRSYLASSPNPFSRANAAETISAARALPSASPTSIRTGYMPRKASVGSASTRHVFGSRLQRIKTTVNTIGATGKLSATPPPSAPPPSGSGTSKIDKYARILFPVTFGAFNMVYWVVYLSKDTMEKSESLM
human GABAA receptors composed of the α4β3δ subunits, sequence (P28472 26-473 limits assumed): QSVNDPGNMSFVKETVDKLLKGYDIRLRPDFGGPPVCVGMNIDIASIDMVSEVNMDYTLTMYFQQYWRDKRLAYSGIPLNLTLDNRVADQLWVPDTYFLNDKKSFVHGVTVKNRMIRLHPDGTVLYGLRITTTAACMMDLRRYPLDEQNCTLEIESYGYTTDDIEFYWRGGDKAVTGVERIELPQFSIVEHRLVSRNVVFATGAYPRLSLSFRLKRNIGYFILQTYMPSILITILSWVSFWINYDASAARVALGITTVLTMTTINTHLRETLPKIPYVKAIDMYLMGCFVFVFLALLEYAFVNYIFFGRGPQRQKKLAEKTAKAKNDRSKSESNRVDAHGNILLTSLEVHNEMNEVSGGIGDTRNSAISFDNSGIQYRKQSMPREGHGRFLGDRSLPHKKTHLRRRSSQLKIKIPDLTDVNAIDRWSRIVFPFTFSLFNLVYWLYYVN
human GABAA receptors composed of the α4β3δ subunits, sequence (O14764 17-452 limits assumed): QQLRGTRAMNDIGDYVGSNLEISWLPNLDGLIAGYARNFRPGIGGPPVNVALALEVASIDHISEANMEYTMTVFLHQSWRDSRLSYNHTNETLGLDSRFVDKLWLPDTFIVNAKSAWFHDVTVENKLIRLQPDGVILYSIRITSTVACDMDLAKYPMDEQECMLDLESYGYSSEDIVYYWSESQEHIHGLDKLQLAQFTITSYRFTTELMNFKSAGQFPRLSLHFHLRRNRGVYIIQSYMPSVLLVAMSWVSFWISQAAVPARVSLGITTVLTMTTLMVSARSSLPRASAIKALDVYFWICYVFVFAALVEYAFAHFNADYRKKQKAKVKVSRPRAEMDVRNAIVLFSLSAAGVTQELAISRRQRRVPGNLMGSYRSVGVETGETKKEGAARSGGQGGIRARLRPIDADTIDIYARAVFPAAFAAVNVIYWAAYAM
human GABAA receptors composed of the α1β2γ2 subunits, sequence (P14867 28-456 limits assumed): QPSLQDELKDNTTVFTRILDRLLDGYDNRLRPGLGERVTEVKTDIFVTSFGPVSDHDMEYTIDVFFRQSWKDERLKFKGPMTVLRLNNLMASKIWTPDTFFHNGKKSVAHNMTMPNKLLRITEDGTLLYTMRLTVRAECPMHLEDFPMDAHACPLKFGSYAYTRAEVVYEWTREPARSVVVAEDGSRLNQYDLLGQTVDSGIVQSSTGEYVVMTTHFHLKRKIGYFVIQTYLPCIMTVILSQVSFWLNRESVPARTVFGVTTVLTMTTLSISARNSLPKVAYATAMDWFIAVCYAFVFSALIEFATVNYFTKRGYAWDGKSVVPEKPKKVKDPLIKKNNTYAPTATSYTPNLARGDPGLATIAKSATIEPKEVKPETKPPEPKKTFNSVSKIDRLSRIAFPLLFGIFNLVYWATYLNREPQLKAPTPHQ
human GABAA receptors composed of the α1β2γ2 subunits, sequence (P47870 25-512 limits assumed): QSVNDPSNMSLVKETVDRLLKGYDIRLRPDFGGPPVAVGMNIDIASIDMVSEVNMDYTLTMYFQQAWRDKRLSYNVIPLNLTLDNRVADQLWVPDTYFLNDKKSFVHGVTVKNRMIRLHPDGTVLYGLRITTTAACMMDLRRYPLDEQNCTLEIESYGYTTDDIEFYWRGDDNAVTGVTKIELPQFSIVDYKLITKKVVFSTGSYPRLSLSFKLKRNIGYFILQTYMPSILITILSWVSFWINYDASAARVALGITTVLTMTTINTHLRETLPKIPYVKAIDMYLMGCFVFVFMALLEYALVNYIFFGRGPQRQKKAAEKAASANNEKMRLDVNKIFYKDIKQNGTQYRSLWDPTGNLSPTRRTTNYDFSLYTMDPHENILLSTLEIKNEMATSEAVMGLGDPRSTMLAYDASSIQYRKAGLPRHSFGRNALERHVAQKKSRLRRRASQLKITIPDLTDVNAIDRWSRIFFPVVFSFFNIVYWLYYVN
human GABAA receptors composed of the α1β2γ2 subunits, sequence (P18507 40-475 limits assumed): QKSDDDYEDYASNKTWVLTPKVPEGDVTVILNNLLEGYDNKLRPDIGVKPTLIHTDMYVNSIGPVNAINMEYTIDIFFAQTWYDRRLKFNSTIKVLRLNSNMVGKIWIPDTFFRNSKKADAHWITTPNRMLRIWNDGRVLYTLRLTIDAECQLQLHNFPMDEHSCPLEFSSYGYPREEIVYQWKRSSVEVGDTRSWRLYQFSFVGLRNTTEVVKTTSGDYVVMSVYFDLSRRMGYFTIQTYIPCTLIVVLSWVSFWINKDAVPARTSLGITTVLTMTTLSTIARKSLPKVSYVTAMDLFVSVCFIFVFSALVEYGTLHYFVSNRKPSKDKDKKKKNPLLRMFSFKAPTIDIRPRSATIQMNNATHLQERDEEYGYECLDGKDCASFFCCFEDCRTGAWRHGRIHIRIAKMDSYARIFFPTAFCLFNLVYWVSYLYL

## C[C@@H](Cn1cc(C#N)cn1)[C@H]1CC[C@H]2[C@@H]3CC[C@@H]4C[C@@](O)(CC5CC5)CC[C@@H]4[C@H]3CC[C@]12C [Example 303, 1-((R)-2-((3S,5R,8R,9R,10S,13S,14S,17R)-3-(cyclopropylmethyl)-3-hydroxy-13-methylhexadecahydro-1H-cyclopenta[a]phenanthren-17-yl)propyl)-1H-pyrazole-4-carbonitrile]
[1]
  pIC50: > 7.00
[2]
  pEC50: > 6.70
  α1β2γ2 EMAX: C (C indicates an Emax response ≥10)
[3]
  pEC50: > 6.70
  α4β3δ EMAX: B (B indicates an Emax response 30 to <45)

## CC[C@@]1(O)CC[C@@]2(C)[C@H](CC[C@@H]3[C@@H]2CC[C@]2(C)[C@@H]([C@@H](C)Cn4ccc(C#N)n4)CC[C@@H]32)C1 [Example 61, 1-((R)-2-((3R,5R,8R,9S,10S,13S,14S,17R)-3-ethyl-3-hydroxy-10,13-dimethylhexadecahydro-1H-cyclopenta[a]phenanthren-17-yl)propyl)-1H-pyrazole-3-carbonitrile]
[1]
  pIC50: > 7.00
[2]
  pEC50: > 6.70
  α1β2γ2 EMAX: C (C indicates an Emax response ≥10)
[3]
  pEC50: > 6.70
  α4β3δ EMAX: A (A indicates an Emax response <30)

## Cc1cnc(C[C@@H](C)[C@H]2CC[C@H]3[C@@H]4CC[C@@H]5C[C@](C)(O)CC[C@@H]5[C@H]4CC[C@]23C)nc1 [Example 438]
[1]
  pIC50: 6.00 to 7.00
[2]
  pEC50: 6.00 to 6.70
  α1β2γ2 EMAX: A (A indicates an Emax response <8)
[3]
  pEC50: ≤ 6.00
  α4β3δ EMAX: B (B indicates an Emax response 30 to <45)

## CCC[C@@]1(O)CC[C@H]2[C@H](CC[C@@H]3[C@@H]2CC[C@]2(C)[C@@H]([C@H](C)Cn4nnnc4C)CC[C@@H]32)C1 [Example 323, (3R,5R,8R,9R,10S,13S,14S,17R)-13-methyl-17-(1-(5-methyl-1H-tetrazol-1-yl)propan-2-yl)-3-propylhexadecahydro-1H-cyclopenta[a]phenanthren-3-ol]
[1]
  pIC50: > 7.00
[2]
  pEC50: > 6.70
  α1β2γ2 EMAX: C (C indicates an Emax response ≥10)
[3]
  pEC50: 6.00 to 6.70
  α4β3δ EMAX: B (B indicates an Emax response 30 to <45)

## CCOC[C@@]1(O)CC[C@H]2[C@H](CC[C@@H]3[C@@H]2CC[C@]2(C)[C@@H]([C@@H](C)N(C)S(=O)(=O)c4cccc(C#N)n4)CC[C@@H]32)C1 [Example 72]
[1]
  pIC50: > 7.00
[2]
  pEC50: 6.00 to 6.70
  α1β2γ2 EMAX: C (C indicates an Emax response ≥10)
[3]
  pEC50: 6.00 to 6.70
  α4β3δ EMAX: C (C indicates an Emax response ≥45)

## CCC[C@@]1(O)CC[C@H]2[C@H](CC[C@@H]3[C@@H]2CC[C@]2(C)[C@@H]([C@@H](C)Cn4nnc(C)n4)[C@@H](O)C[C@@H]32)C1 [Example 365, (3R,5R,8R,9R,10S,13S,14S,16S,17R)-13-methyl-17-((R)-1-(5-methyl-2H-tetrazol-2-yl)propan-2-yl)-3-propylhexadecahydro-1H-cyclopenta[a]phenanthrene-3,16-diol]
[2]
  pEC50: ≤ 6.00
[3]
  pEC50: 6.00 to 6.70

## COC[C@@]1(O)CC[C@H]2[C@H](CC[C@@H]3[C@@H]2CC[C@]2(C)[C@@H]([C@@H](C)Cc4ccc(C(F)(F)F)nc4)CC[C@@H]32)C1 [Example 420]
[2]
  pEC50: > 6.70
[3]
  pEC50: > 6.70

## CCOC[C@@]1(O)CC[C@H]2[C@H](CC[C@@H]3[C@@H]2CC[C@]2(C)[C@@H]([C@@H](CC)Nc4cccc(C#N)c4)CC[C@@H]32)C1 [Example 492, 3-(((R)-1-((3R,5R,8R,9R,10S,13S,14S,17S)-3-(ethoxymethyl)-3-hydroxy-13-methylhexadecahydro-1H-cyclopenta[a]phenanthren-17-yl)propyl)amino)benzonitrile]
[1]
  pIC50: 5.00 to 6.00

## C[C@H]([C@H]1CC[C@H]2[C@@H]3CC[C@@H]4C[C@](C)(O)CC[C@@H]4[C@H]3CC[C@]12C)n1ccnn1 [Example 159, (3R,5R,8R,9R,10S,13S,14S,17S)-17-((R)-1-(1H-1,2,3-triazol-1-yl)ethyl)-3,13-dimethylhexadecahydro-1H-cyclopenta[a]phenanthren-3-ol]
[1]
  pIC50: ≤ 5.00

## COC[C@@]1(O)CC[C@@]2(C)[C@H](CC[C@@H]3[C@@H]2CC[C@@]2(C)[C@H]3CC[C@]2(O)[C@H](C)Cn2cc(C#N)cn2)C1 [Example 352, 1-((R)-2-((3R,5R,8R,9S,10S,13S,14S,17S)-3,17-dihydroxy-3-(methoxymethyl)-10,13-dimethylhexadecahydro-1H-cyclopenta[a]phenanthren-17-yl)propyl)-1H-pyrazole-4-carbonitrile]
[1]
  pIC50: 5.00 to 6.00

## C[C@@H](NC(=O)c1ccc(C#N)cc1F)[C@H]1CC[C@H]2[C@@H]3CC[C@@H]4C[C@](C)(O)CC[C@@H]4[C@H]3CC[C@]12C [Example 130]
[1]
  pIC50: > 7.00

## C[C@@H](Cn1cc(C#N)cn1)[C@@]1(O)CC[C@H]2[C@@H]3CC[C@@H]4C[C@](C)(O)CC[C@@H]4[C@H]3CC[C@@]21C [Example 345, 1-((S)-2-((3R,5R,8R,9R,10S,13S,14S,17S)-3,17-dihydroxy-3,13-dimethylhexadecahydro-1H-cyclopenta[a]phenanthren-17-yl)propyl)-1H-pyrazole-4-carbonitrile]
[1]
  pIC50: 5.00 to 6.00

## Cc1cc(C#N)ccc1N[C@@H]([C@H]1CC[C@H]2[C@@H]3CC[C@@H]4C[C@](C)(O)CC[C@@H]4[C@H]3CC[C@]12C)C(F)(F)F [Example 489, 3-methyl-4-(((S)-2,2,2-trifluoro-1-((3R,5R,8R,9R,10S,13S,14S,17S)-3-hydroxy-3,13-dimethylhexadecahydro-1H-cyclopenta[a]phenanthren-17-yl)ethyl)amino)benzonitrile]
[1]
  pIC50: 5.00 to 6.00

## CCOC[C@@]1(O)CC[C@H]2[C@H](CC[C@@H]3[C@@H]2CC[C@]2(C)[C@@H]([C@@H](C)N4Cc5cc(C#N)ccc5C4=O)CC[C@@H]32)C1 [Example 43, 2-((R)-1-((3R,5R,8R,9R,10S,13S,14S,17S)-3-(ethoxymethyl)-3-hydroxy-13-methylhexadecahydro-1H-cyclopenta[a]phenanthren-17-yl)ethyl)-1-oxoisoindoline-5-carbonitrile]
[1]
  pIC50: 6.00 to 7.00

## C[C@@]1(O)CC[C@H]2[C@H](CC[C@@H]3[C@@H]2CC[C@]2(C)[C@@H](CNC(=O)Cc4ccccc4)CC[C@@H]32)C1 [Example 8, N-(((3R,5R,8R,9R,10S,13S,14S,17S)-3-hydroxy-3,13-dimethylhexadecahydro-1H-cyclopenta[a]phenanthren-17-yl)methyl)-2-phenylacetamide]
[1]
  pIC50: > 7.00

## COC[C@@]1(O)CC[C@H]2[C@H](CC[C@@H]3[C@@H]2CC[C@]2(C)[C@@H]([C@@H](C)n4ncc(C#N)c4N)CC[C@@H]32)C1 [Example 152, 5-amino-1-((R)-1-((3R,5R,8R,9R,10S,13S,14S,17S)-3-hydroxy-3-(methoxymethyl)-13-methylhexadecahydro-1H-cyclopenta[a]phenanthren-17-yl)ethyl)-1H-pyrazole-4-carbonitrile]
[1]
  pIC50: 5.00 to 6.00
